One experiment concerns MHCC97-H cells. Conditions: MHCC97-H s.c. nude mice; 16 mg/kg intraperitoneal, once every 24 h, 6 administrations; by tumor weight. How it is done: (§1) Establishment of tumor-bearing models: Tumor cells were cultured in T75 flasks until achieving a logarithmical growth. The cells were trypsinized and DMEM medium containing 10% fetal bovine serum was added to terminate trypsinization. The cells were washed with PBS twice, and suspended. Cell concentration was adjusted to 5×10^7 cells/ml, and 150 μl cell suspension was injected into the right flank of the mice. After inoculation, the tumors in the nude mice were observed every day, and the mice were grouped when the tumors reached a volume of 100 mm^3. Each nude mouse was numbered, and the tumor size was measured. The data was entered into EXCEL for sorting and thus excluding extreme values. Random numbers were generated corresponding to the number of the mice, and the mice were randomly grouped using these random numbers.
(§2) Administration: intraperitoneal injection was used at doses of 4 mg/kg, 8 mg/kg, and 16 mg/kg, respectively. The vehicle control group was injected with the same volume of DMSO. The mice received treatment once every 24 h, and a total of 6 times of administrations were given. During administration, changes of tumor size (length×width×width/2) were monitored and recorded in a real-time manner, and the results were expressed as mean±standard deviation.

The next experiment relates to MHCC97-L cells. Conditions: MHCC97-L s.c. nude mice; 16 mg/kg intraperitoneal, once every 24 h, 6 administrations; by tumor weight. Here is the method:
as §1, §2

For another experiment, the target named is TrkA (Homo sapiens, UniProt P04629). Nature of the experiment: Western blot, NGF-induced TrkA phosphorylation and signaling pathway in SK-N-SH cells. It counts as cell-based. Conditions: 0.05-1.0 μM, 500 ng/mL NGF. Here is the method:
The medium was changed once every 1-2 days. […] 500 ng/mL NGF or 200 ng/ml BDNF (if not added, marked as “-”) were added to stimulate the cells for 5 min. After cell lysis, total protein was extracted. Western blot assay was carried out with TrkA phosphorylated and non-phosphorylated (p-TrkA) antibodies, TrkB phosphorylated and non-phosphorylated (p-TrkB) antibodies, ERK phosphorylated and non-phosphorylated (p-ERK) antibodies, Akt phosphorylated and non-phosphorylated (p-Akt) antibodies, and GAPDH antibody.
(In general: Immunoblotting shows a protein as a band on a membrane.)

Structures are written as SMILES.

TrkA, sequence (P04629 33-796, species assumed): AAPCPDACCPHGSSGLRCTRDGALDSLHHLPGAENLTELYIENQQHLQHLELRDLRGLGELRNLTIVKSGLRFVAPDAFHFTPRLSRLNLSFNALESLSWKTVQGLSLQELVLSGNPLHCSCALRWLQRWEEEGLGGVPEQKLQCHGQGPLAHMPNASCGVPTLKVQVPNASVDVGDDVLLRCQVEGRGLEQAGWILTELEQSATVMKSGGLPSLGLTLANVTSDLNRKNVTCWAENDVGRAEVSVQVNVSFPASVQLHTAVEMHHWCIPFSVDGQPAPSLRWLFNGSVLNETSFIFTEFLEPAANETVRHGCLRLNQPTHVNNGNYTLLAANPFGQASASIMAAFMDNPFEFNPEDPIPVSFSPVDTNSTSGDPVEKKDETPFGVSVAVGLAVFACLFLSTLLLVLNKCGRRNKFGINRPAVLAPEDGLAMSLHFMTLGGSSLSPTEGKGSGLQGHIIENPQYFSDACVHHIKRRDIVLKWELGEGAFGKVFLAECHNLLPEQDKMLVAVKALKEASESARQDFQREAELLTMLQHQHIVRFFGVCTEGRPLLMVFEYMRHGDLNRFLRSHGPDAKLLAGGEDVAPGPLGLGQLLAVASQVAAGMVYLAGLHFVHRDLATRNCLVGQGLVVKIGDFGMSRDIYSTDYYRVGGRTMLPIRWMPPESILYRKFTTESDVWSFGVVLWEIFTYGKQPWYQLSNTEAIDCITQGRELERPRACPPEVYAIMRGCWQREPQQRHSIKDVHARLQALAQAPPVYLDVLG

Consider `Cc1ccccc1NS(=O)(=O)c1ccc2c(c1)/C(=C/c1nc3ccccc3[nH]1)C(=O)N2` [Indo 5, 3-(1H-benzimidazol-2-methylene)-5-(2-methylphenylaminosulfo)-2-indolone], for which the Tumor inhibition rate with MHCC97-H cells is given as 61%; in the experiment on MHCC97-L cells it was 68%. In addition, the “Phosphorylation of TrkA and downstream ERK” value on TrkA is listed as “significantly inhibited”.
